The values below come from ChEMBL document CHEMBL3244293, “Antiallergic activity of some 9H-xanthen-9-one-2-carboxylic acids” (J Med Chem, 1978).

In data set [1] the test system is Rattus norvegicus. The experiment in a line: Antiallergic activity in anti-Nippostrongylus brasiliensis homocytotropic antibody-injected Sprague-Dawley rat assessed as inhibition of passive cutaneous anaphylaxis reaction at 10 mg/kg, ip administered 15 mins prior to worm extract antigen challenge measured 45 mins following antigen challenge by Evans blue dye staining. The class given is functional. The settings on record: route intraperitoneal; for inhibition in vivo at 10 mg/kg: Rattus norvegicus, Sprague-Dawley, ip.

The subject of data set [2] is Rattus norvegicus. In words: Antiallergic activity in anti-Nippostrongylus brasiliensis homocytotropic antibody-injected Sprague-Dawley rat assessed as inhibition of passive cutaneous anaphylaxis reaction at 25 mg/kg, po administered 8 mins prior to worm extract antigen challenge measured 45 mins following antigen challenge by Evans blue dye staining. The class given is functional.

Data set [3] is described as follows: 1-Octanol-citrate buffer partition coefficient, log P of the compound at pH 4.0 by UV spectrometry. It is filed as physicochemical.
The subject of data set [4] is Rattus norvegicus. In words: Antiallergic activity in anti-Nippostrongylus brasiliensis homocytotropic antibody-injected Sprague-Dawley rat assessed as inhibition of passive cutaneous anaphylaxis reaction at 5 mg/kg, ip administered 15 mins prior to worm extract antigen challenge measured 45 mins following antigen challenge by Evans blue dye staining. The settings on record: route intraperitoneal. It is filed as functional.

A word on the inhibition in vivo: it is the change of the read-out against control, counted positive when it falls. The logD is lipophilicity at a set pH, counting ionised and neutral species. A high value points to higher lipophilicity.

With `COCCOCC(O)COc1ccc2oc3ccc(C(=O)O)cc3c(=O)c2c1` (stereo not given), in the data set with Rattus norvegicus [1], the inhibition in vivo at 10 mg/kg is 99% and the “log(%)” value came to 2. In addition, the inhibition in vivo at 25 mg/kg in the data set on Rattus norvegicus [2] turned out to be 15%. Also, the logD in data set [3] was found to be 2.08.
For `O=C(O)c1ccc2oc3ccc(OCC(O)CSc4ccc(Cl)c(Cl)c4)cc3c(=O)c2c1` (stereo not given), in the data set on Rattus norvegicus [4], the inhibition in vivo at 5 mg/kg turned out to be 7%.
For `COc1ccc(SCC(O)COc2ccc3oc4ccc(C(=O)O)cc4c(=O)c3c2)cc1` (stereo not given), the inhibition in vivo at 5 mg/kg in the data set on Rattus norvegicus [4] was 51%.
`O=C(O)c1ccc2oc3ccc(OCC(O)CSC4CCCCC4)cc3c(=O)c2c1` (stereo not given): in the data set with Rattus norvegicus [1], the inhibition in vivo at 10 mg/kg stood at 39% and the “log(%)” value came to 1.59. In data set [3], this compound came in with a logD of 2.95.
On to `CC(C)SCC(O)COc1ccc2oc3ccc(C(=O)O)cc3c(=O)c2c1` (stereo not given), for which, in the data set on Rattus norvegicus [1], the inhibition in vivo at 10 mg/kg came out at 38% and the “log(%)” value came to 1.54. Moreover, in data set [3], the pH-dependent lipophilicity (logD) came out at 3.06.
`O=C(O)c1ccc2oc3ccc(OCC(O)CO)cc3c(=O)c2c1` (stereo not given): in the data set on Rattus norvegicus [1], the inhibition in vivo at 10 mg/kg is 78% and the “log(%)” value is on record as 1.89. The inhibition in vivo at 25 mg/kg in the data set on Rattus norvegicus [2] is 19%. The logD in data set [3] is 2.33.
Consider `O=C(O)c1ccc2oc3ccc(OCC(O)CSc4ccc(Cl)cc4)cc3c(=O)c2c1` (stereo not given), for which the inhibition in vivo at 5 mg/kg in the data set with Rattus norvegicus [4] is 37%.
In the case of `O=C(O)c1cc(=O)c2c(OCC(O)COc3cccc4oc(C(=O)O)cc(=O)c34)cccc2o1` [CROMOLYN SODIUM], in the data set with Rattus norvegicus [1], the inhibition in vivo at 10 mg/kg was determined as 89%.
With `O=C(O)c1ccc2oc3ccc(OCC(O)CSc4ccc(F)cc4)cc3c(=O)c2c1` (stereo not given), the inhibition in vivo at 5 mg/kg in the data set with Rattus norvegicus [4] turned out to be 38%.
Turning to `O=C(O)c1ccc2oc3ccc(OCC(O)CSCCO)cc3c(=O)c2c1` (stereo not given), in the data set with Rattus norvegicus [1], the inhibition in vivo at 10 mg/kg came out at 100% and the “log(%)” value was found to be 2. For the same compound, the inhibition in vivo at 25 mg/kg in the data set with Rattus norvegicus [2] is 0%. This compound also displayed a logD in data set [3] of 2.32.
On to `O=C(O)c1ccc2oc3ccc(OCC(O)CSc4ccccc4)cc3c(=O)c2c1` (stereo not given), for which the inhibition in vivo at 5 mg/kg in the data set on Rattus norvegicus [4] amounted to 88%. Further, in the data set with Rattus norvegicus [1], the inhibition in vivo at 10 mg/kg was 100% and the “log(%)” value turned out to be 2. Besides, the inhibition in vivo at 25 mg/kg with Rattus norvegicus [2] turned out to be 22%. This compound showed a logD in data set [3] of 3.8.
In the case of `O=C(O)c1ccc2oc3ccc(OCC(O)COCCO)cc3c(=O)c2c1` (stereo not given), in the data set with Rattus norvegicus [1], the inhibition in vivo at 10 mg/kg amounted to 77% and the “log(%)” value is on record as 1.89. For the same compound, in data set [3], the logD came to 2.31.
For `O=C(O)c1ccc2oc3ccc(OCC(O)CSC45CC6CC(CC(C6)C4)C5)cc3c(=O)c2c1` (stereo not given) the same measures were 16%, 1.2 and 2.58.
For the compound `O=C(O)c1ccc2oc3ccc(OCCO)cc3c(=O)c2c1`, in the data set on Rattus norvegicus [4], the inhibition in vivo at 5 mg/kg is 100%. Besides, in the data set with Rattus norvegicus [1], the inhibition in vivo at 10 mg/kg came out at 100%. The inhibition in vivo at 25 mg/kg in the data set on Rattus norvegicus [2] turned out to be 100%.
As for `CC(C)(C)SCC(O)COc1ccc2oc3ccc(C(=O)O)cc3c(=O)c2c1` (stereo not given), in the data set on Rattus norvegicus [1], the inhibition in vivo at 10 mg/kg amounted to 83% and the “log(%)” value worked out at 1.92. The compound also yielded a logD in data set [3] of 2.83.
Turning to `CSCC(O)COc1ccc2oc3ccc(C(=O)O)cc3c(=O)c2c1` (stereo not given), in the data set with Rattus norvegicus [1], the inhibition in vivo at 10 mg/kg was 71% and the “log(%)” value is listed as 1.85. Moreover, in the data set on Rattus norvegicus [2], the inhibition in vivo at 25 mg/kg turned out to be 48%. Besides, in data set [3], the pH-dependent lipophilicity (logD) amounted to 2.81.
Consider `O=C(O)c1ccc2oc3ccc(OCC(O)COCC(F)(F)F)cc3c(=O)c2c1` (stereo not given), for which, in the data set on Rattus norvegicus [1], the inhibition in vivo at 10 mg/kg was 100% and the “log(%)” value stood at 2. In the data set with Rattus norvegicus [2], the inhibition in vivo at 25 mg/kg stood at 0%. Further, the log distribution coefficient (logD) in data set [3] was determined as 3.14.
For `CCCCCCCSCC(O)COc1ccc2oc3ccc(C(=O)O)cc3c(=O)c2c1` (stereo not given), in the data set on Rattus norvegicus [1], the inhibition in vivo at 10 mg/kg turned out to be 17% and the “log(%)” value is reported as 1.23. In addition, in data set [3], the logD stood at 2.81.
Take `COCC(O)COc1ccc2oc3ccc(C(=O)O)cc3c(=O)c2c1` (stereo not given): in the data set with Rattus norvegicus [1], the inhibition in vivo at 10 mg/kg worked out at 29% and the “log(%)” value stood at 1.46. Moreover, the logD in data set [3] was found to be 2.13.
`C[S+]([O-])CC(O)COc1ccc2oc3ccc(C(=O)O)cc3c(=O)c2c1` (stereo not given): in the data set with Rattus norvegicus [1], the inhibition in vivo at 10 mg/kg amounted to 100% and the “log(%)” value turned out to be 2. For the same compound, in the data set with Rattus norvegicus [2], the inhibition in vivo at 25 mg/kg worked out at 0%. The logD in data set [3] is 1.36.
With `O=C(O)c1ccc2oc3ccc(OCC(O)C[S+]([O-])c4ccccc4)cc3c(=O)c2c1` (stereo not given), in the data set on Rattus norvegicus [4], the inhibition in vivo at 5 mg/kg is 42%.
Still for that read-out and setting: the same measure for `O=C(O)c1ccc2oc3ccc(OCC(O)CSc4ccc(Br)cc4)cc3c(=O)c2c1` (stereo not given): 14%.
